Assay in all cases: DTP human tumour cell line panel, 48 h
Assay [1] has as its system NCI-H522 lung.
For assay [2], the system named is OVCAR-8 ovarian.
Assay [3] concerns NCI-H23 lung.
Assay [4] deals with A549 NSCLC.
In assay [5] the test system is SF-268 CNS.
For assay [6], the system named is U251 CNS.
In assay [7] the test system is HCT-15 colon.
Assay [8] has as its system HCC-2998 colon.
In assay [9] the test system is SK-MEL-5 melanoma.
Assay [10] deals with SN12C renal.
The test system of assay [11] is HT29 colon.
Assay [12] relates to SF-295 CNS.
Assay [13] deals with DU-145 prostate.
The subject of assay [14] is SNB-75 CNS.
Assay [15] deals with NCI/ADR-RES ovarian.
Assay [16] has as its system SK-OV-3 ovarian.
Assay [17] concerns KM12 colon.
In assay [18] the test system is UACC-62 melanoma.

The record followed here is PubChem BioAssay (NCI).

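Tested at 5 concentrations; 48 h exposure; 96-well plates; endpoints linearly interpolated, else capped at highest concentration. TGI: concentration producing complete growth inhibition.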

For the compound `Cc1ccc([N+]2=NC(c3ccc([N+](=O)[O-])cc3)=NN(c3ccccc3)C2)cc1`, the TGI in assay [1] is 39 µM; in assay [2] it was greater than 100 µM; in assay [3], greater than 100 µM; in [4] it was greater than 100 µM; in assay [5], greater than 100 µM; in assay [6], greater than 100 µM. Besides, the TGI in [7], in assay [8], in assay [9], in assay [10], in assay [11] and in assay [12] was greater than 100 µM in each case.
Regarding `CC[C@]1(Cc2ccc(OC)c(OC)c2)C=[N+]([O-])O[C@H](OC2CCCCC2c2ccccc2)[C@@H]1OC(C)=O` (stereo not given in full), the TGI in [1], in [2], in [13], in assay [14], in [3] and in [4] was greater than 100 µM each time. Further, the TGI in assay [15], in assay [6], in assay [7], in [16], in assay [17] and in assay [8] was greater than 100 µM each time. Further, the TGI in assay [18], in assay [9], in assay [10], in assay [11] and in assay [12] was greater than 100 µM each time.
`CCOc1ccc(NC(=O)/C(Cc2nc3ccccc3[nH]c2=O)=N\O)cc1`: the TGI in assay [1], in assay [2], in assay [14], in assay [3], in assay [4] and in assay [5] was greater than 100 µM each time. Moreover, the TGI in [6], in assay [7], in assay [16], in assay [17], in [8] and in assay [18] was greater than 100 µM each time. This compound had a TGI in assay [9] greater than 100 µM.
For `CC(=O)OC1COC(n2c(O)c(N=Nc3ccc([N+](=O)[O-])cc3)c3cc(Br)c([N+](=O)[O-])cc32)C(OC(C)=O)C1OC(C)=O` (stereo not given), the TGI in [1], in assay [2], in assay [3], in assay [4], in assay [5] and in assay [6] was greater than 100 µM throughout. The TGI in assay [7] is greater than 100 µM; in [16], greater than 100 µM; in assay [17], greater than 100 µM; in assay [8], greater than 100 µM; in [18], 36.6 µM; in [9], greater than 100 µM. Further, the figures for the TGI in [10], in assay [11] and in assay [12] were greater than 100 µM, greater than 100 µM and 67.1 µM, respectively.
As to `O=C1C[C@@H]2[C@@H](C=CC23CC3)N1O`, the total growth inhibition concentration (TGI) in [1], in [2], in assay [14], in assay [3], in assay [4] and in assay [5] was greater than 100 µM each time. Further, the TGI in assay [6], in assay [16], in [17], in assay [8], in assay [18] and in assay [9] was greater than 100 µM in each case. The total growth inhibition concentration (TGI) in assay [10], in [11] and in assay [12] was greater than 100 µM throughout.
For `COc1cc(C(=O)O)cc2c1[nH]c1ccccc12`, the TGI in [1], in assay [2], in assay [4], in [5], in [6] and in [7] was greater than 25 µM throughout. For the same compound, the TGI in assay [16], in assay [17], in [8], in assay [18], in assay [9] and in [10] was greater than 25 µM each time. The compound further showed a TGI in [11] greater than 25 µM.
For the compound `CN(C)CCNC(=O)c1ccccc1Nc1c(Cl)cccc1Cl`, the TGI in [2] was determined as 27.8 µM; in assay [14], 9.52 µM; in [3] it was 30.9 µM; in assay [4] it was 25.3 µM; in assay [5], 31.5 µM; in assay [6], 23.9 µM. The TGI in assay [7] amounted to 27.9 µM; in assay [16], 26.8 µM; in assay [8], 23.7 µM; in assay [18], 31.4 µM; in assay [9], 9.96 µM; in [10], 28.7 µM. This compound also showed a TGI in assay [11] of 20 µM.
For the compound `ClCCN(CC#CCCCC#CCN(CCCl)CCCl)CCCl`, the TGI in assay [1] amounted to 21.7 µM; in [2] it was 23.9 µM; in assay [14], 36.4 µM; in assay [3], 29.3 µM; in [4], 31.8 µM; in [5], 33.5 µM. Further, the TGI in assay [15] is 58.1 µM; in assay [6], 23.8 µM; in assay [7] it was 27.2 µM; in assay [16], 27.8 µM; in assay [17] it was 44.4 µM; in [8], 32.9 µM. Besides, the TGI in assay [18] is 20 µM; in assay [9], 24.3 µM; in [10], 21.2 µM; in assay [11], 24.8 µM; in [12] it was 28.1 µM.
As for `CC1(OCc2ccccc2)C(=O)N2C1N(C(=O)OCc1ccccc1)CC2(C)C` (stereo not given), the TGI in assay [2], in assay [14], in [3], in [4], in [5] and in [6] was greater than 100 µM each time. Further, the TGI in [7] was greater than 100 µM; in assay [8] it was greater than 100 µM; in assay [18] it was greater than 100 µM; in [9] it was 33.5 µM; in assay [10], greater than 100 µM; in [11], greater than 100 µM. This compound also showed a TGI in assay [12] greater than 100 µM.
Turning to `COc1ccc2c(c1)OCC1=C2Oc2ccccc2C1`, the TGI in assay [1] was 70.2 µM; in assay [2], greater than 100 µM; in assay [13], greater than 100 µM; in assay [14], 42.5 µM; in assay [3] it was greater than 100 µM; in assay [4] it was greater than 100 µM. In addition, the TGI in assay [5], in assay [15], in assay [6], in assay [7], in assay [16] and in assay [17] was greater than 100 µM throughout. For the same compound, the TGI is 54 µM in assay [8]; greater than 100 µM in [18]; 28.3 µM in assay [9]; greater than 100 µM in [10]; 90 µM in [11]; greater than 100 µM in [12].
With `CC(C)NC1CCCCC2c3cc(F)ccc3[C@]12O` (stereo not given in full), the TGI in [1], in assay [2], in assay [14], in assay [3], in assay [4] and in assay [5] was greater than 100 µM each time. The TGI in assay [6], in [7], in [16], in assay [17], in assay [8] and in assay [18] was greater than 100 µM each time. The TGI in [9], in [10], in assay [11] and in [12] was greater than 100 µM each time.
In the case of `Cc1cc(N(CCC#N)CCC#N)ccc1/C=C(\NC(=O)/C=C/c1ccccc1)NC(=O)Nc1ccccc1C`, the TGI in assay [2] is greater than 100 µM; in assay [3], greater than 100 µM; in [4], greater than 100 µM; in assay [5], greater than 100 µM; in assay [6], 42.7 µM; in assay [7] it was greater than 100 µM. Moreover, the TGI in assay [17], in assay [8], in assay [18], in [9], in assay [10] and in [11] was greater than 100 µM in each case. Also, in assay [12], the TGI is greater than 100 µM.
Regarding `COc1ccc2c(c1)CC[C@@H]1C2CC[C@]2(C)C(=N\O)/C(=N/O)CC12` (stereo not given in full), the TGI is 11.5 µM in [1]; 33.7 µM in assay [2]; 23.1 µM in assay [3]; 24.7 µM in [4]; 37.8 µM in assay [5]; 28.7 µM in assay [6]. For the same compound, the TGI in [7] is 26.2 µM; in assay [16] it was 32.6 µM; in [17], 42.7 µM; in assay [8], 37.8 µM; in assay [18], 26.6 µM; in assay [9], 25.7 µM. The TGI came to 36.5 µM in assay [10], 5.14 µM in [11] and 23.9 µM in assay [12].
`O=C1OCCC12CN(Cc1ccccc1)N=N2` (stereo not given): the TGI in [1], in assay [2], in assay [13], in assay [3], in [4] and in assay [5] was greater than 100 µM each time. The TGI in [15], in assay [6], in [7], in assay [16], in [17] and in assay [8] was greater than 100 µM each time. Further, the TGI in assay [18], in assay [9], in assay [10], in assay [11] and in assay [12] was greater than 100 µM throughout.
As for `Nc1cc(N2CCOCC2)nc(=O)n1-c1ccccc1`, the TGI in [2], in assay [13], in assay [14], in assay [3], in assay [4] and in [15] was greater than 100 µM in each case. The TGI in assay [6], in assay [7], in [16], in assay [17], in assay [8] and in assay [18] was greater than 100 µM each time. Moreover, the TGI in assay [9], in assay [10], in assay [11] and in assay [12] was greater than 100 µM in each case.
On to `CC(=O)CC(=O)ON(C)C(C)=O`, for which the TGI in assay [1], in assay [2], in [14], in assay [3], in assay [4] and in assay [5] was greater than 100 µM each time. Moreover, the TGI in [6], in assay [16], in assay [17], in assay [8], in assay [18] and in assay [9] was greater than 100 µM in each case. Further, the TGI in assay [10], in [11] and in assay [12] was greater than 100 µM in each case.
As to `CC(/C=C/c1ccccc1)=N\N=C(C)\C=C\c1ccccc1`, the TGI in assay [1], in [2], in assay [14], in assay [3], in [4] and in [5] was greater than 100 µM each time. Besides, the TGI in assay [6], in assay [7], in [16], in [17], in assay [8] and in assay [9] was greater than 100 µM throughout. The TGI in [10], in [11] and in [12] was greater than 100 µM in each case.
As to `O=C(O)COc1cc(-c2ccccc2F)nc2cc3c(cc12)OCO3`, the TGI in assay [2], in assay [13], in assay [14], in assay [3], in assay [4] and in [5] was greater than 100 µM in each case. Moreover, the TGI in [15], in [6], in assay [7], in assay [16], in assay [17] and in assay [8] was greater than 100 µM in each case. The TGI in assay [18], in [9], in [10], in assay [11] and in assay [12] was greater than 100 µM in each case.

As a reminder, the TGI is the concentration at which net growth stops. A lower TGI goes with more potent growth arrest.
